This passage reports IC50 results from patent publication US12139499B2, “Heteroaryl compounds for treating Huntington's disease” (PTC THERAPEUTICS, INC., priority 2018, dated 2024).

Molecules are shown by their SMILES. Where only a bound is given, the exact number is not on record here.

The test system of this assay is Endogenous Huntingtin Protein. Kind of assay: Endogenous Huntingtin Protein Assay (ELISA-based MSD electrochemiluminescence). Type of assay: cell-based. Particulars: Table 1. In a few lines: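 Huntingtin was captured overnight at 4 °C on plates coated with 1 μg/mL MW1 (polyQ-expanded) or MAB2166 antibody and BSA-blocked. Detection used a rabbit monoclonal and then a SULFO-TAG goat anti-rabbit antibody (0.25 μg/mL, 1 h each, room temperature). Signal was read by electrochemiluminescence.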
A general note: An ELISA detects its analyte on a solid surface through an enzyme-linked reagent.

Regarding `CN(c1nc2nnc(-c3cc(C#N)c4nn(C)cc4c3)cc2s1)C1CC(C)(C)NC(C)(C)C1` [Compound 158, 2-methyl-5-{6-[methyl(2,2,6,6-tetramethylpiperidin-4-yl)amino][1,3]thiazolo[4,5-c]pyridazin-3-yl}-2H-indazole-7-carbonitrile], the IC50 lay in the range of 100 to 500 nM.

`CN(c1nc2ncc(-c3ccc(-c4cn[nH]c4)c(F)c3F)nc2s1)C1CC(C)(C)NC(C)(C)C1` [Compound 161, 6-[2,3-difluoro-4-(1H-pyrazol-4-yl)phenyl]-N-methyl-N-(2,2,6,6-tetramethylpiperidin-4-yl)[1,3]thiazolo[4,5-b]pyrazin-2-amine] showed an IC50 of 1000 to 3000 nM.

The compound `Cc1cn2nc(-c3cnc4nc(N(C)C5CC(C)(C)NC(C)(C)C5)sc4n3)cc(C)c2n1` [Compound 162, 6-(2,8-dimethylimidazo[1,2-b]pyridazin-6-yl)-N-methyl-N-(2,2,6,6-tetramethylpiperidin-4-yl)[1,3]thiazolo[4,5-b]pyrazin-2-amine] returned a half-maximal inhibitory concentration (IC50) of no more than 100 nM.

`Cc1cn2cc(-c3cnc4nc(N(C)C5CC(C)(C)NC(C)(C)C5)sc4n3)cc(C#N)c2n1` [Compound 163, 2-methyl-6-{2-[methyl(2,2,6,6-tetramethylpiperidin-4-yl)amino][1,3]thiazolo[4,5-b]pyrazin-6-yl}imidazo[1,2-a]pyridine-8-carbonitrile] registered a half-maximal inhibitory concentration (IC50) of no more than 100 nM.

Consider `Cc1cn2nc(-c3cc(F)c4nc(N(C)C5CCN[C@@H](C)C5)sc4c3)ccc2n1` (stereo partly drawn) [Compound 164, 4-fluoro-N-methyl-6-(2-methylimidazo[1,2-b]pyridazin-6-yl)-N-[(2S)-2-methylpiperidin-4-yl]-1,3-benzothiazol-2-amine], for which the IC50 is no more than 100 nM.

In the case of `Cc1cn2nc(-c3cc(F)c4nc(N(C)C5CCN[C@@H](C)C5)sc4c3)cc(C)c2n1` (stereo partly drawn) [Compound 165, 6-(2,8-dimethylimidazo[1,2-b]pyridazin-6-yl)-4-fluoro-N-methyl-N-[(2S)-2-methylpiperidin-4-yl]-1,3-benzothiazol-2-amine], the IC50 was no more than 100 nM.

In turn, `Cc1cn2nc(-c3cc(F)c4nc(C5CCN6CCCC6C5)sc4c3)ccc2n1` (centres unmarked) [Compound 166, 6-[4-fluoro-2-(octahydroindolizin-7-yl)-1,3-benzothiazol-6-yl]-2-methylimidazo[1,2-b]pyridazine] registered an IC50 of no more than 100 nM.

`CNc1cc(-c2cc(F)c3nc(C4CCNCC4)sc3c2)nn2cc(C)nc12` [Compound 167, 6-[4-fluoro-2-(piperidin-4-yl)-1,3-benzothiazol-6-yl]-N,2-dimethylimidazo[1,2-b]pyridazin-8-amine]: the 50% inhibitory concentration (IC50) was no more than 100 nM.

Consider `Cc1cn2nc(-c3cc(F)c4nc(C5CCNCC5)sc4c3)cc(N(C)C)c2n1` [Compound 168, 6-[4-fluoro-2-(piperidin-4-yl)-1,3-benzothiazol-6-yl]-N,N,2-trimethylimidazo[1,2-b]pyridazin-8-amine], for which the IC50 is no more than 100 nM.

Turning to `Cc1cn2cc(-c3ccc4nc(C5CCNCC5)sc4c3)ncc2n1` [Compound 169, 2-methyl-6-[2-(piperidin-4-yl)-1,3-benzothiazol-6-yl]imidazo[1,2-a]pyrazine], the IC50 is 100 to 500 nM.

On to `Cc1cn2cc(-c3ncc4nc(N(C)C5CC(C)(C)NC(C)(C)C5)sc4n3)cc(C#N)c2n1` [Compound 170, 2-methyl-6-{2-[methyl(2,2,6,6-tetramethylpiperidin-4-yl)amino][1,3]thiazolo[5,4-d]pyrimidin-5-yl}imidazo[1,2-a]pyridine-8-carbonitrile], for which the IC50 is no more than 100 nM.

Consider `Cc1cn2cc(-c3ncc4nc(N(C)C5CC(C)(C)NC(C)(C)C5)sc4n3)cc(F)c2n1` [Compound 171, 5-(8-fluoro-2-methylimidazo[1,2-a]pyridin-6-yl)-N-methyl-N-(2,2,6,6-tetramethylpiperidin-4-yl)[1,3]thiazolo[5,4-d]pyrimidin-2-amine], for which the IC50 was no more than 100 nM.

With `Cn1cc2cc(-c3cc(C#N)c4nc(C5=CCNCC5)sc4c3)cc(C#N)c2n1` [Compound 172, 6-(7-cyano-2-methyl-2H-indazol-5-yl)-2-(1,2,3,6-tetrahydropyridin-4-yl)-1,3-benzothiazole-4-carbonitrile], the IC50 was in the range of 1000 to 3000 nM.

Turning to `Cc1cn2cc(-c3cnc4nc(N5CCNCC5)sc4n3)cc(C#N)c2n1` [Compound 173, 2-methyl-6-[2-(piperazin-1-yl)[1,3]thiazolo[4,5-b]pyrazin-6-yl]imidazo[1,2-a]pyridine-8-carbonitrile], the IC50 was 1000 to 3000 nM.

As for `Cc1cn2cc(-c3cnc4nc(N5CCNCC5)sc4n3)cc(F)c2n1` [Compound 174, 6-(8-fluoro-2-methylimidazo[1,2-a]pyridin-6-yl)-2-(piperazin-1-yl)[1,3]thiazolo[4,5-b]pyrazine], the IC50 was 1000 to 3000 nM.

On to `Cc1cc(-c2ccc3nc(N(C)C4CC(C)NC(C)C4)sc3c2)cc2cn(C)nc12` (centres unmarked) [Compound 175, 6-(2,7-dimethyl-2H-indazol-5-yl)-N-(2,6-dimethylpiperidin-4-yl)-N-methyl-1,3-benzothiazol-2-amine], for which the IC50 is no more than 100 nM.

In turn, `CC1CC(N(C)c2nc3ccc(-c4ccc5nn(C)cc5c4)cc3s2)CC(C)N1` (centres unmarked) [Compound 176, N-(2,6-dimethylpiperidin-4-yl)-N-methyl-6-(2-methyl-2H-indazol-5-yl)-1,3-benzothiazol-2-amine] displayed an IC50 of no more than 100 nM.

On to `Cc1cn2cc(-c3ccc4nc(N(C)C5CC(C)(C)NC(C)(C)C5)sc4n3)cc(F)c2n1` [Compound 177, 5-(8-fluoro-2-methylimidazo[1,2-a]pyridin-6-yl)-N-methyl-N-(2,2,6,6-tetramethylpiperidin-4-yl)[1,3]thiazolo[5,4-b]pyridin-2-amine], for which the IC50 is no more than 100 nM.

`Cc1cn2cc(-c3ccc4nc(N(C)C5CC(C)(C)NC(C)(C)C5)sc4n3)cc(C#N)c2n1` [Compound 178, 2-methyl-6-{2-[methyl(2,2,6,6-tetramethylpiperidin-4-yl)amino][1,3]thiazolo[5,4-b]pyridin-5-yl}imidazo[1,2-a]pyridine-8-carbonitrile]: the IC50 is no more than 100 nM.

For the compound `Cc1cn2cc(-c3cc4sc(N(C)C5CC(C)(C)NC(C)(C)C5)nc4cn3)cc(C#N)c2n1` [Compound 179, 2-methyl-6-{2-[methyl(2,2,6,6-tetramethylpiperidin-4-yl)amino][1,3]thiazolo[4,5-c]pyridin-6-yl}imidazo[1,2-a]pyridine-8-carbonitrile], the IC50 is no more than 100 nM.

Regarding `Cc1cn2cc(-c3cnc4nc(OC5CC(C)(C)NC(C)(C)C5)sc4n3)cc(F)c2n1` [Compound 180, 6-(8-fluoro-2-methylimidazo[1,2-a]pyridin-6-yl)-2-[(2,2,6,6-tetramethylpiperidin-4-yl)oxy][1,3]thiazolo[4,5-b]pyrazine], the IC50 lay in the range of 100 to 500 nM.

Compound `Cc1cn2cc(-c3cnc4nc(OC5CC(C)(C)NC(C)(C)C5)sc4n3)cc(C#N)c2n1` [Compound 181, 2-methyl-6-{2-[(2,2,6,6-tetramethylpiperidin-4-yl)oxy][1,3]thiazolo[4,5-b]pyrazin-6-yl}imidazo[1,2-a]pyridine-8-carbonitrile] registered an IC50 of 100 to 500 nM.

In the case of `Cc1cn2nc(-c3cnc4nc(N5CCNCC5)sc4n3)ccc2n1` [Compound 182, 6-(2-methylimidazo[1,2-b]pyridazin-6-yl)-2-(piperazin-1-yl)[1,3]thiazolo[4,5-b]pyrazine], the IC50 lay within 500 to 1000 nM.

The compound `Cc1cn2cc(-c3ncc4nc(N(C)C5CC(C)(C)NC(C)(C)C5)sc4n3)cc(C)c2n1` [Compound 183, 5-(2,8-dimethylimidazo[1,2-a]pyridin-6-yl)-N-methyl-N-(2,2,6,6-tetramethylpiperidin-4-yl)[1,3]thiazolo[5,4-d]pyrimidin-2-amine] had an IC50 of no more than 100 nM.

The compound `Cc1cn2nc(-c3ncc4nc(N(C)C5CC(C)(C)NC(C)(C)C5)sc4n3)cc(C)c2n1` [Compound 184, 5-(2,8-dimethylimidazo[1,2-b]pyridazin-6-yl)-N-methyl-N-(2,2,6,6-tetramethylpiperidin-4-yl)[1,3]thiazolo[5,4-d]pyrimidin-2-amine] yielded an IC50 of 1000 to 3000 nM.

On to `Cc1cn2nc(-c3cc(F)c4nc(N(C)C5CCNCC5)sc4c3)ccc2n1` [Compound 185, 4-fluoro-N-methyl-6-(2-methylimidazo[1,2-b]pyridazin-6-yl)-N-(piperidin-4-yl)-1,3-benzothiazol-2-amine], for which the 50% inhibitory concentration (IC50) is no more than 100 nM.

As to `Cc1cn2nc(-c3cc(F)c4nc(N(C)C5CCNCC5)sc4c3)cc(C)c2n1` [Compound 186, 6-(2,8-dimethylimidazo[1,2-b]pyridazin-6-yl)-4-fluoro-N-methyl-N-(piperidin-4-yl)-1,3-benzothiazol-2-amine], the IC50 is no more than 100 nM.

Consider `Cc1cn2nc(-c3cc(F)c4nc(C5CCNCC5)sc4c3)cc(OCc3ccccc3)c2n1` [Compound 187, 8-(benzyloxy)-6-[4-fluoro-2-(piperidin-4-yl)-1,3-benzothiazol-6-yl]-2-methylimidazo[1,2-b]pyridazine], for which the IC50 is no more than 100 nM.

Regarding `Cc1cn2nc(-c3cc(F)c4nc(C5CCNCC5)sc4c3)cc(N)c2n1` [Compound 188, 6-[4-fluoro-2-(piperidin-4-yl)-1,3-benzothiazol-6-yl]-2-methylimidazo[1,2-b]pyridazin-8-amine], the IC50 was no more than 100 nM.

`Cc1cn2nc(-c3cc(F)c4nc(C5CCNCC5)sc4c3)cc(O)c2n1` [Compound 189, 6-[4-fluoro-2-(piperidin-4-yl)-1,3-benzothiazol-6-yl]-2-methylimidazo[1,2-b]pyridazin-8-ol]: the IC50 lay in the range of 100 to 500 nM.

The compound `CC1CC(c2nc3ccc(-c4ccc5nn(C)cc5c4)cc3s2)CC(C)N1` (centres unmarked) [Compound 190, 2-(2,6-dimethylpiperidin-4-yl)-6-(2-methyl-2H-indazol-5-yl)-1,3-benzothiazole] displayed an IC50 of 1000 to 3000 nM.

`COc1cc(-c2cc(F)c3nc(C4CCNCC4)sc3c2)ccc1F` [Compound 191, 4-fluoro-6-(4-fluoro-3-methoxyphenyl)-2-(piperidin-4-yl)-1,3-benzothiazole]: the IC50 fell in the range of 1000 to 3000 nM.

Usually IC50 stands for the concentration that gives 50% inhibition. Read a low IC50 as greater potency.
